Columns and labels:
Type in all cases: cell-based, influenza virus
IFVA/Mal/302/54 = experiment: cytopathic effect (CPE) antiviral test in MDCK cells, IFVA/Mal/302/54; settings: unidentified influenza virus, MDCK, 120 h, read-out: EC50(IFVA/Mal/302/54), MDCK cells, CPE method, CCK-8 cell viability, 5 days
IFVA/Weiss/43 = experiment: cytopathic effect (CPE) antiviral test in MDCK cells, IFVA/Weiss/43; settings: unidentified influenza virus, MDCK, 120 h, read-out: EC50(IFVA/Weiss/43), MDCK cells, CPE method, CCK-8 cell viability, 5 days
IFV A/PR/8/34 = experiment: cytopathic effect (CPE) antiviral test in MDCK cells, IFV A/PR/8/34; settings: unidentified influenza virus, PR/8, MDCK, 120 h, read-out: EC50(IFV A/PR/8/34)

SMILES | EC50 (IFVA/Mal/302/54) | EC50 (IFVA/Weiss/43) | EC50 (IFV A/PR/8/34)
CC(=O)N(C)c1ccc2oc(-c3ccnc(C(=O)N4CCN(C(c5ccccc5)c5nnn(C(F)F)n5)CC4)c3)nc2c1 (racemic) [Compound 113, (R/S)—N-(2-(2-(4-((2-(difluoromethyl)-2H-tetrazol-5-yl)(phenyl)methyl)piperazine-1-carbonyl)pyridin-4-yl)benzo[d]oxazol-5-yl)-N-methylacetamide] | 18 nM | 19 nM | 20 nM
[2H]C([2H])([2H])C(=O)Nc1ccc2oc(-c3ccnc(C(=O)N4CCN(C(c5ccccc5)c5nnn(C(F)F)n5)CC4)c3)nc2c1 (racemic) [Compound 114, (R/S)—N-(2-(2-(4-((2-(difluoromethyl)-2H-tetrazol-5-yl)(phenyl)methyl)piperazine-1-carbonyl)pyridin-4-yl)benzo[d]oxazol-5-yl) Deuterated Acetamide] | 10 nM | 19 nM | 25 nM
Cn1ccnc1-c1ccc2nc(-c3ccnc(C(=O)N4CCN(C(c5ccccc5)c5nnn(C(F)F)n5)CC4)c3)oc2c1 (racemic) [Compound 107, (R/S)-(4-((2-(difluoromethyl)-2H-tetrazol-5-yl)(phenyl)methyl)piperazin-1-yl)(4-(6-(1-methyl-1H-imidazol-2-yl)benzo[d]oxazol-2-yl)pyridin-2-yl)methanone] | 6 nM | 2 nM | 9 nM
O=C(Nc1ccc2oc(-c3ccnc(C(=O)N4CCN(C(c5ccccc5)c5nnn(C(F)F)n5)CC4)c3)nc2c1)C1CCC1 (racemic) [Compound 67, (R/S)—N-(2-(2-(4-((2-(difluoromethyl)-2H-tetrazol-5-yl)(phenyl)methyl)piperazine-1-carbonyl)pyridin-4-yl)benzo[d]oxazol-5-yl)cyclobutanecarboxamide] | 21 nM | 12 nM | 17 nM
[2H]C([2H])([2H])C(C(=O)Nc1ccc2oc(-c3ccnc(C(=O)N4CCN(C(c5ccccc5)c5nnn(C(F)F)n5)CC4)c3)nc2c1)C([2H])([2H])[2H] (racemic) [Compound 109, (R/S)—N-(2-(2-(4-((2-(difluoromethyl)-2H-tetrazol-5-yl)(phenyl)methyl)piperazine-1-carbonyl)pyridin-4-yl)benzo[d]oxazol-5-yl)-2-(methyl-d3)propanamide] | 11 nM | 6 nM | 12 nM
O=C(Nc1ccc2nc(-c3ccnc(C(=O)N4CCN(C(c5ccccc5)c5nnn(C(F)F)n5)CC4)c3)oc2c1)C1CC1 (racemic) [Compound 104, (R/S)—N-(2-(2-(4-((2-(difluoromethyl)-2H-tetrazol-5-yl)(phenyl)methyl)piperazine-1-carbonyl)pyridin-4-yl)benzo[d]oxazol-6-yl)cyclopropanecarboxamide] | 16 nM | 12 nM | 59 nM
O=C(c1cc(-c2nc3cc(-c4nccs4)ccc3o2)ccn1)N1CCN(C(c2ccccc2)c2nnn(C(F)F)n2)CC1 (racemic) [Compound 119, (R/S)-(4-((2-(difluoromethyl)-2H-tetrazol-5-yl)(phenyl)methyl)piperazin-1-yl)(4-(5-(thiazol-2-yl)benzo[d]oxazol-2-yl)pyridin-2-yl)methanone] | 6 nM | 2 nM | 22 nM
CC(=O)Nc1ccc2oc(-c3ccnc(C(=O)N4CCN(C(c5ccccc5)c5nnn(C)n5)C5(CC5)C4)c3)nc2c1 (stereo not drawn) [Compound 7, N-(2-(2-(4-((2-methyl-2H-tetrazol-5-yl)(phenyl)methyl)-4,7-diazaspiro[2.5]octane-7-carbonyl)pyridin-4-yl)benzo[d]oxazol-5-yl)acetamide] | 841 nM | 520 nM | –
Cn1nnc(C(c2ccccc2)N2CCN(C(=O)c3cc(-c4nc5cc(NC(=O)C6(F)CC6)ccc5o4)ccn3)CC2)n1 (stereo not drawn) [Compound 194, 1-fluoro-N-(2-(2-(4-((2-methyl-2H-tetrazol-5-yl)(phenyl)methyl)piperazine-1-carbonyl)pyridin-4-yl)benzo[d]oxazol-5-yl)cyclopropane-1-carboxamide] | 25 nM | 24 nM | –
CC(=O)Nc1ccc2nc(-c3ccnc(C(=O)N4CCN(C(c5ccccc5)c5nnn(C(F)F)n5)CC4)c3)oc2c1 (racemic) [Compound 90, (R/S)—N-(2-(2-(4-((2-(difluoromethyl)-2H-tetrazol-5-yl)(phenyl)methyl)piperazine-1-carbonyl)pyridin-4-yl)benzo[d]oxazol-6-yl)acetamide] | 18 nM | 28 nM | –
CC(=O)Nc1ccc2oc(-c3ccnc(C(=O)N4C[C@H]5C[C@@H]4CN5C(c4ccccc4)c4nnn(C)n4)c3)nc2c1 (stereo partly drawn) [Compound 6a, N-(2-(2-((1R,4R)-5-((2-methyl-2H-tetrazol-5-yl)(phenyl)methyl)-2,5-diazabicyclo[2.2.1]heptane-2-carbonyl)pyridin-4-yl)benzo[d]oxazol-5-yl)acetamide] | > 10000 nM | > 7870 nM | –
O=C(Nc1ccc2oc(-c3ccnc(C(=O)N4CCN(C(c5ccccc5)c5nnn(C(F)F)n5)CC4)c3)nc2c1)[C@@H]1C[C@H]1F (stereo partly drawn) [Compound 30, (1S,2R)-2-fluoro-N-(2-(2-(4-((2-difluoromethyl-2H-tetrazol-5-yl)(phenyl)methyl)piperazine-1-carbonyl)pyridin-4-yl)benzo[d]oxazol-5-yl)cyclopropane-1-carboxamide] | 27 nM | 12 nM | –
Cn1nnc(C(c2ccccc2)N2CCN(C(=O)c3cc(-c4nc5cc(NC(=O)[C@@H]6CC6(F)F)ccc5o4)ccn3)CC2)n1 (stereo partly drawn) [Compound 24, (1S)-2,2-difluoro-N-(2-(2-(4-((2-methyl-2H-tetrazol-5-yl)(phenyl)methyl)piperazine-1-carbonyl)pyridin-4-yl)benzo[d]oxazol-5-yl)cyclopropane-1-carboxamide] | 32 nM | 12 nM | –
O=C(Nc1ccc2oc(-c3ccnc(C(=O)N4CCN(C(c5ccccc5)c5nnn(C(F)F)n5)CC4)c3)nc2c1)[C@H]1C[C@@H]1F (mixture of isomers) [Compound 95, (1R,2S)—N-(2-(2-(4-((R/S)-(2-(difluoromethyl)-2H-tetrazol-5-yl)(phenyl)methyl)piperazine-1-carbonyl)pyridin-4-yl)benzo[d]oxazol-5-yl)-2-fluorocyclopropane-1-carboxamide] | 10 nM | 17 nM | –
Cn1nnc(C(c2ccccc2)N2CCN(C(=O)c3cc(-c4nc5cc(NC(=O)[C@@H]6C[C@H]6F)ccc5o4)ccn3)CC2)n1 (stereo partly drawn) [Compound 25, (1S,2R)-2-fluoro-N-(2-(2-(4-((2-methyl-2H-tetrazol-5-yl)(phenyl)methyl)piperazine-1-carbonyl)pyridin-4-yl)benzo[d]oxazol-5-yl)cyclopropane-1-carboxamide] | 68 nM | 60 nM | –
O=C(Nc1ccc2oc(-c3ccnc(C(=O)N4CCN(C(c5ccccc5)c5nnn(C(F)F)n5)CC4)c3)nc2c1)[C@H]1C[C@H]1F (stereo partly drawn) [Compound 33, (1R,2R)-2-fluoro-N-(2-(2-(4-((2-difluoromethyl-2H-tetrazol-5-yl)(phenyl)methyl)piperazine-1-carbonyl)pyridin-4-yl)benzo[d]oxazol-5-yl)cyclopropane-1-carboxamide] | 31 nM | 16 nM | –

Reference: patent US20230079045A1 (priority 2019, published 2023)
